This experiment relates to HIV. Nature of the experiment: anti-HIV activity in cell culture. The note with it: Human immunodeficiency virus 1, in vitro. Type of experiment: cell-based.

Each structure is given as a SMILES string. pEC50: −log10 of the molar value.

The term pEC50 denotes the EC50 on a negative log10 scale, so that one unit is a factor of ten. Lower therefore signals a high EC50. Consider `O=C(NN1CCCC1=O)/C(O)=C/C(=O)c1cc(Cc2c(F)cccc2F)cn(Cc2ccccc2F)c1=O` [FIG. 1b], for which the pEC50 was 8.00. Compound `O=C(N[C@H]1CCC[C@@H]1O)/C(O)=C/C(=O)c1cc(Cc2ccc(F)cc2F)cn(Cc2ccccc2F)c1=O` [FIG. 1a] gave a pEC50 of 7.60.
